Results on 1 compound are retold here after PMC10403574, “Discovery of a pyrrole-pyridinimidazole derivative as novel SIRT6 inhibitor for sensitizing pancreatic cancer to gemcitabine” (Cell Death & Disease, 2023).

The structures appear in SMILES notation.

Series [1] has as its target SIRT1 (Homo sapiens, UniProt Q96EB6). As to the kind of experiment: Deacetylation activity selectivity, SIRT1. The class given is biochemical. On the procedure:
(§1) Fluor-De-Lys (FDL) assays were used for the examination of the deacetylation activities of sirtuins as described previously. For the detection of SIRT6 activity, the 50-μL reaction mixture contained 5 μM SIRT6, 2.5 mM NAD^+ (β-Nicotinamide adenine dinucleotide hydrate, Sigma, N1636), 75 μM RHKK-Ac-AMC (GL Biochem, Shanghai), compounds/DMSO, and assay buffer. The reactions were incubated at 37 °C for 2 h, added 50 μL stop solution (40 mM nicotinamide, 6 mg/mL trypsin) at 25 °C for 30 min. Fluorescence intensity was measured at an excitation wavelength of 360 nm and an emission wavelength of 460 nm. IC50 values were calculated in GraphPad Prism version 8.00.
(§2) Based on the above results, 8a was further investigated in this study. […] To further evaluate the selectivity of 8a for SIRT6, we examined the effect of 8a on the deacetylation activity of other HDAC family members, including HDAC1-HDAC11, SIRT1-SIRT3 and SIRT5. […] Furthermore, to confirm binding of 8a to SIRT6 in cells, we carried out the cellular thermal shift assay (CETSA). The CETSA approach builds on the thermal shift assay concept where ligand binding to its target protein enhances the target protein stability. We observed that the thermal stability of SIRT6 increased after 8a treatment (Figs. 2c, d).

In series [2] the target is SIRT5 (Homo sapiens, UniProt Q9NXA8). In words: Deacetylation activity selectivity, SIRT5. Format: biochemical. On the procedure: as §1, §2
Series [3] has as its target HDAC2 (Homo sapiens, UniProt Q92769). As to the kind of experiment: Deacetylation activity selectivity, HDAC2. Format: biochemical.
Source text: as §2

In series [4] the target is HDAC3 (Homo sapiens, UniProt O15379). In words: Deacetylation activity selectivity, HDAC3. Format: biochemical.
Source text: as §2

For series [5], the target named is HDAC4 (Homo sapiens, UniProt P56524). As to the kind of experiment: Deacetylation activity selectivity, HDAC4. The class given is biochemical.
Source text: as §2

For series [6], the target named is HDAC6 (Homo sapiens, UniProt Q9UBN7). In words: Deacetylation activity selectivity, HDAC6. Format: biochemical.
Source text: as §2

Series [7] concerns the target HDAC8 (Homo sapiens, UniProt Q9BY41). In words: Deacetylation activity selectivity, HDAC8. Format: biochemical.
Source text: as §2

Series [8] deals with HDAC10 (Homo sapiens, UniProt Q969S8). In words: Deacetylation activity selectivity, HDAC10. Format: biochemical.
Source text: as §2

Series [9] has as its target HDAC11 (Homo sapiens, UniProt Q96DB2). In words: Deacetylation activity selectivity, HDAC11. The class given is biochemical.
Source text: as §2

Series [10] relates to PANC-1 cells. In words: MTT proliferation assay, PANC-1. The class given is cell-based. The following applies: 72 h. On the procedure: BXPC-3 and PANC-1 cells were plated in 96-well plates at 5000 cells per well. After 12 h attachment, varying concentrations of 8a were added into the culture medium for 72 h. Then 10 μL MTT (5 mg/ml) solution was added into per well for 4 h at 37 °C. After removing medium, formazan crystals were dissolved in 150 µL DMSO. The cells viability was quantified by measuring the absorbance at 570 nm.

In series [11] the test system is β-TC-6 cells. As to the kind of experiment: Cell glucose uptake assay, β-TC-6. Format: cell-based. The following applies: β-TC-6, 8a (3.125, 6.25, 12.5 μM) + insulin (100 nM) vs insulin only, 30 min. On the procedure:
The NIT-1 and β-TC-6 cells were added to the wells of 12-well plates and incubated overnight. Then the culture medium without FBS was incubated for 6 h, and different concentrations of 8a (3.125, 6.25, 12.5 μM), insulin (100 nM) or their combination were added for 30 min. Glucose uptake was determined using a Glucose Uptake Assay Kit (Jiancheng, Nanjing).

A short description of series [12]: Glucose uptake and insulin secretion in vivo. Further details: species or system C57BL/6 mice. The following applies: mice, 8a 10, 20, 30 mg/kg i.p. + glucose 2 g/kg vs glucose group; short term and long term (2 weeks). On the procedure: (§3) Male C57BL/6 mice (18 ± 2 g, 5 weeks old) were randomly divided into four groups with six mice per group. Acute drug toxicity test was performed. Mice were fasted for 6 h, and basal blood glucose and serum insulin levels were measured by using Accu-Check Performa (Roche, Swiss) glucose meter and Mouse Insulin ELISA kit (Solarbio). Compound 8a (10, 20, 30 mg/kg) was intraperitoneally injected for 10 min, followed by glucose (2 g/kg) intraperitoneally injected. The blood glucose concentration was measured at 30 and 60 min after glucose injection, and the serum insulin content of mice was measured at 60 min. Compound 8a was treated every other day for 2 weeks and tested for chronic drug toxicity. According to the above method, the serum glucose and insulin content of mice were measured.

Series [13] has as its system islet α cells and β cells. As to the kind of experiment: Immunofluorescence of pancreatic tissues (islet cell composition). Format: in vivo. The following applies: mice, 8a 20 mg/kg, 2 weeks. On the procedure:
as §3
Pancreatic tissue sections were incubated with primary antibodies overnight at 4 °C. The primary antibodies were as follows: anti-Glucagon (Cell Signaling Technology, Cat#2760), anti-insulin (Cell Signaling Technology, Cat#3014). The sections were stained with secondary antibodies (Alexa Fluor 488-conjugated anti-rabbit IgG, Abcam, Cat#ab150077) for 2 h at 4 °C in dark. After washing with PBS, the sections were stained with DAPI and observed by confocal microscopy (Leica TCS SP8 STED 3X).

The subject of series [14] is BXPC-3 xenografts. As to the kind of experiment: BXPC-3 tumor xenograft in nude mice. The class given is in vivo, BALB/c nude mice. On the procedure: Female BALB/c nude mice (14 ± 2 g, 4 weeks old) were purchase. About 2 × 10^6 of BXPC-3 cells were inoculated into nude mouse flanks. When the tumor volume reached approximately 100 mm^3, mice were randomly divided into four groups with six mice per group before treatment and then treated with vehicle, 8a (20 mg/kg), gemcitabine (10 mg/kg) and their combination every 2 days. Tumor volumes and body weight were measured every 3 days, and use the formula to calculate the tumor volume: V = (L × W × W)/2 (V, tumor volume; L, length; and W, width). Mice were sacrificed and tumor tissues were removed. Tumor tissues were fixed with paraformaldehyde (4%) and embedded with paraffin.
To further confirm whether 8a can enhance the antitumor effects of gemcitabine in vivo, the BXPC-3 PDAC xenografts were used. The mice with tumors received intraperitoneal injection of compound 8a (20 mg/kg), gemcitabine (10 mg/kg), or their combination once every 2 days for 4 weeks. Tumor volumes and body weight of mice were monitored every 3 days.

Sequence of HDAC4 (P56524 whole entry, species assumed): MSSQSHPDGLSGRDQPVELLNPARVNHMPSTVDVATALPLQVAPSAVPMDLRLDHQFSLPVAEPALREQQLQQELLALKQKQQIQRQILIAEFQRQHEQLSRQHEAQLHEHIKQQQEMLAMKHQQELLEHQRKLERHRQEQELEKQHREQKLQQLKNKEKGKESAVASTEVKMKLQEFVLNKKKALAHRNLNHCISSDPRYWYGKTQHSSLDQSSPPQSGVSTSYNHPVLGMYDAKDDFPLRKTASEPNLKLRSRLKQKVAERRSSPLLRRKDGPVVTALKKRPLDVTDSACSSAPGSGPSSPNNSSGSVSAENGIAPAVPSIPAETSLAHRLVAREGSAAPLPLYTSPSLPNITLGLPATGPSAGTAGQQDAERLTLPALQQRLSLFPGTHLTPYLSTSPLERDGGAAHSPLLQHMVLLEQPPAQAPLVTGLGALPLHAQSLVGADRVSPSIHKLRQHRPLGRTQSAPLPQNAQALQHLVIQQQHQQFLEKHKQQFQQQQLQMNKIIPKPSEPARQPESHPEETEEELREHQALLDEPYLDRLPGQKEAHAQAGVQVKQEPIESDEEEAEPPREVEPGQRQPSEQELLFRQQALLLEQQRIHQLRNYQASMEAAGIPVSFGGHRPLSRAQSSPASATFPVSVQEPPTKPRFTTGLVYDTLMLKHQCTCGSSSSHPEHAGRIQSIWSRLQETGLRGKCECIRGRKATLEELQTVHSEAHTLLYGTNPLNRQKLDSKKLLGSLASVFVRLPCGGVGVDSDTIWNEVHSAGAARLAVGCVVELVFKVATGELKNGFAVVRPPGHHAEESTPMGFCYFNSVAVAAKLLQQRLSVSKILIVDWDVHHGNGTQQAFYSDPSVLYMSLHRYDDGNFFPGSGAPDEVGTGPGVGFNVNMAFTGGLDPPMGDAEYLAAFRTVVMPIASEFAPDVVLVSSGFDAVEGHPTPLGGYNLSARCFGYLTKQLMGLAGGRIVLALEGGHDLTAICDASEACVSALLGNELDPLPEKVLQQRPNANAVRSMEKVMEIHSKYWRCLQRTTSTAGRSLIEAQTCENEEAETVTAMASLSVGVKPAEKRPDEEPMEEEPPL
Sequence of HDAC10 (Q969S8 whole entry, species assumed): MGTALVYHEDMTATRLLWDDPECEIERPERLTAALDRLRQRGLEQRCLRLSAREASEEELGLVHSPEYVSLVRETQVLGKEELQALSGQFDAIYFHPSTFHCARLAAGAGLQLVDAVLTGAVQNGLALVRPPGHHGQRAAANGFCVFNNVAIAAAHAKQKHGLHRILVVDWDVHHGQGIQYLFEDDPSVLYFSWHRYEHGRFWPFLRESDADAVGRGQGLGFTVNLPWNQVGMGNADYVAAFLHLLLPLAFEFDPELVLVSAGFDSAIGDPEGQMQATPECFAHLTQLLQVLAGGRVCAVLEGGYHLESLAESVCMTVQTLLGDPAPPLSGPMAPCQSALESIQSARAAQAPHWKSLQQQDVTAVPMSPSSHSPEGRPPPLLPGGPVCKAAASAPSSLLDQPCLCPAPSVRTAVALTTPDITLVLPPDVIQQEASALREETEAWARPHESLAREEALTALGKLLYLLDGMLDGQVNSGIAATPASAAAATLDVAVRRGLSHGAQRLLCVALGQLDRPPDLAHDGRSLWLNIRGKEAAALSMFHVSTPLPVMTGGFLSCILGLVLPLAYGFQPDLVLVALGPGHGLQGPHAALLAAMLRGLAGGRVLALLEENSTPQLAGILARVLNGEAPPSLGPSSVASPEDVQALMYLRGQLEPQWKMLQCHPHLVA
Sequence of HDAC8 (Q9BY41 whole entry, species assumed): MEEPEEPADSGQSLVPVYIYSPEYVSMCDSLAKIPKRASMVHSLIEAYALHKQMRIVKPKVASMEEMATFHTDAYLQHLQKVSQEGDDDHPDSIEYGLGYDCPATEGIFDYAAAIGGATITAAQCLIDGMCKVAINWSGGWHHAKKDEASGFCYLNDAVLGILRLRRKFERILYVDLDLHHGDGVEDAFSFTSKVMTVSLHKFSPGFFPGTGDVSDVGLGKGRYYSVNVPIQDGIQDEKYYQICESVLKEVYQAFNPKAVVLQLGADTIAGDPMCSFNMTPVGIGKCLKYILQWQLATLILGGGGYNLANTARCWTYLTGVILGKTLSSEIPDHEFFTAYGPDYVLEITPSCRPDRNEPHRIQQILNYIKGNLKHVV
Sequence of SIRT1 (Q96EB6 whole entry, species assumed): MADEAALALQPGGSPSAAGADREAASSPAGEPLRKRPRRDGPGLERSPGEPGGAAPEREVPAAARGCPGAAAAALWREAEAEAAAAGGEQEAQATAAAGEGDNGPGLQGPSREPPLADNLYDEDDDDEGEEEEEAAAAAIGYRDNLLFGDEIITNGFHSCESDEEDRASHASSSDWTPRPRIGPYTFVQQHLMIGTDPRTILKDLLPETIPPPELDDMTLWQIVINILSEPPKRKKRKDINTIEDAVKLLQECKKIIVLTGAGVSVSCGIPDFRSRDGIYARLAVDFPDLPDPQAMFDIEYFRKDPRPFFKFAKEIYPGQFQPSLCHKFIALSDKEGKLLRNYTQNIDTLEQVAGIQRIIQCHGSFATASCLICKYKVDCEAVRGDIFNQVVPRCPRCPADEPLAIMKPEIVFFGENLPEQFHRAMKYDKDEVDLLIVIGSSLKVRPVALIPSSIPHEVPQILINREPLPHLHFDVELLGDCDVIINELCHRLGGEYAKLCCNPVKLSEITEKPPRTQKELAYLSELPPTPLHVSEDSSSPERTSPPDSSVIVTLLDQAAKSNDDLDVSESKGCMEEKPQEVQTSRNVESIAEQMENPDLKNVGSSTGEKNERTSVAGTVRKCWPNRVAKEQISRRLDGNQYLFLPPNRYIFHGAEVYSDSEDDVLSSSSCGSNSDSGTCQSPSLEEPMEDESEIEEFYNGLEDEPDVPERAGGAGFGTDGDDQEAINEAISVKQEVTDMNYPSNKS
Sequence of HDAC11 (Q96DB2 whole entry, species assumed): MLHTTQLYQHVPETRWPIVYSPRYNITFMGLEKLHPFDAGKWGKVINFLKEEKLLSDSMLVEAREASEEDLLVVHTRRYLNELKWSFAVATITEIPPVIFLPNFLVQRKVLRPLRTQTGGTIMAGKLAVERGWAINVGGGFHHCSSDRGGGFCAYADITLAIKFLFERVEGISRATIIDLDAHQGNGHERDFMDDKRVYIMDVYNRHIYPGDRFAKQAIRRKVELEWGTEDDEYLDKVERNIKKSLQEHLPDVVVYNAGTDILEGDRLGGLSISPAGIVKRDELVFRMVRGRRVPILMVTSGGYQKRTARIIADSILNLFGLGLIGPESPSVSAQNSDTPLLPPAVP
Sequence of HDAC6 (Q9UBN7 whole entry, species assumed): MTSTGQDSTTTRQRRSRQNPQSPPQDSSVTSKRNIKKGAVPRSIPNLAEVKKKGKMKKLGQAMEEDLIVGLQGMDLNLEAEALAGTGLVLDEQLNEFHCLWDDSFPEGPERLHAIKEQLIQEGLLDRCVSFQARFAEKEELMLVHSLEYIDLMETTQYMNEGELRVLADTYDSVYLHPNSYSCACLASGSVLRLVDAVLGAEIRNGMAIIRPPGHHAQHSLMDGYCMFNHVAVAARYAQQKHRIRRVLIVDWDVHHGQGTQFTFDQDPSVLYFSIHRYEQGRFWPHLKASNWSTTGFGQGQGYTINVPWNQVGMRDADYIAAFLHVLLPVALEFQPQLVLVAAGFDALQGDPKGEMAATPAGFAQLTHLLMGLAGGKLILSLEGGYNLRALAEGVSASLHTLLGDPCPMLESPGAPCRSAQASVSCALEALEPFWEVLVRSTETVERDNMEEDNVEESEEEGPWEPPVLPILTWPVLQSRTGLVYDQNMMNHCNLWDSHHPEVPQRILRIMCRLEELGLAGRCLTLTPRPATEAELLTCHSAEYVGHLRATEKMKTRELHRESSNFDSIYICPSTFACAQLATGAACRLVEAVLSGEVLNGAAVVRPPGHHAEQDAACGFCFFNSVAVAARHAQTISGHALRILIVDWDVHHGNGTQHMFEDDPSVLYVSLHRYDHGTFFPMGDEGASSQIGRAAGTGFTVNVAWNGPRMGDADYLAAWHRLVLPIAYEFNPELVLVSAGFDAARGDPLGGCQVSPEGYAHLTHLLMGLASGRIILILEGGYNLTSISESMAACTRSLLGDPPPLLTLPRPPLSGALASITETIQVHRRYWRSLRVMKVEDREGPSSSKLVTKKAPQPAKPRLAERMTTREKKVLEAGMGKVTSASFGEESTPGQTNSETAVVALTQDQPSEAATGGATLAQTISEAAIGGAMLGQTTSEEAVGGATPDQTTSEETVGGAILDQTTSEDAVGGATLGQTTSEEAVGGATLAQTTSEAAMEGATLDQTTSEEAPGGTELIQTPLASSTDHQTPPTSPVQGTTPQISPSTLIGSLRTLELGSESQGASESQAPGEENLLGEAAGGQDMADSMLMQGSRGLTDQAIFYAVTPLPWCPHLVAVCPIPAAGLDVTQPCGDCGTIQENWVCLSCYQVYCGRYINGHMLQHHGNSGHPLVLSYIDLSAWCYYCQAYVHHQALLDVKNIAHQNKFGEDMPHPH
Sequence of SIRT5 (Q9NXA8 37-310, species assumed): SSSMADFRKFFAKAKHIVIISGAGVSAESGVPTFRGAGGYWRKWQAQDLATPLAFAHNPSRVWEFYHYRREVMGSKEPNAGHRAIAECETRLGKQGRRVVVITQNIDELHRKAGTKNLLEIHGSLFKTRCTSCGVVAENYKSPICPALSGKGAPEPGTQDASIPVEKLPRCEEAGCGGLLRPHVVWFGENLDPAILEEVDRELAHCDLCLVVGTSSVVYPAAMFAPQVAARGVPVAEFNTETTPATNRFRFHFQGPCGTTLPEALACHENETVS

Broadly, the IC50 is the concentration at which inhibition is half-maximal. Regarding `Br.CN(C)C(SCCCCCCn1cnc2c(-c3cc(Br)c(Br)[nH]3)nccc21)=[N+](C)C.[Cl-]` [Compound 8a], the half-maximal inhibitory concentration (IC50) in [1] was 80.5 ± 1.91 µM; in series [2] it was > 200 µM; in series [3], > 200 µM; in series [4], 112 ± 2.05 µM; in series [5], > 200 µM; in series [6], 96.8 ± 1.98 µM. The concentration for half-maximal inhibition (IC50) in [7] was 102 ± 2.01 µM; in [8], > 200 µM; in series [9], > 200 µM; in [10], 9.28 µM. Moreover, in series [11], the glucose uptake result was “no significant effect”. Also, the “blood glucose and insulin concentration” value in [12] is “no significant difference”. Further, the “number of α cells and β cells in the islets” value in series [13] is listed as “no significant difference”. Further, in [14] (8a 20 mg/kg i.p. once every 2 days for 4 weeks, vs control mice), the tumor inhibition is given as 27%. Also, the “Ac-H3K9 in tumor tissue” value in [14] (western blotting of tumor tissue samples, 8a 20 mg/kg) is on record as “elevated”.
